Calls of active or inactive are those of the source. Unless noted, the calls are words filed in the database; no cut-off is given here.
How the values were obtained:
Type in all cases: functional
[1] = target: T1, Sphingosine 1-phosphate receptor 4 (Homo sapiens, UniProt O95977); assay: (§1) Late-stage fluorescence-based dose-response cell-based counterscreen assay to identify agonists of the Sphingosine 1-Phosphate Receptor 4 (S1P4): inhibition by S1P4-selective antagonist […].
T1 sequence (O95977 whole entry): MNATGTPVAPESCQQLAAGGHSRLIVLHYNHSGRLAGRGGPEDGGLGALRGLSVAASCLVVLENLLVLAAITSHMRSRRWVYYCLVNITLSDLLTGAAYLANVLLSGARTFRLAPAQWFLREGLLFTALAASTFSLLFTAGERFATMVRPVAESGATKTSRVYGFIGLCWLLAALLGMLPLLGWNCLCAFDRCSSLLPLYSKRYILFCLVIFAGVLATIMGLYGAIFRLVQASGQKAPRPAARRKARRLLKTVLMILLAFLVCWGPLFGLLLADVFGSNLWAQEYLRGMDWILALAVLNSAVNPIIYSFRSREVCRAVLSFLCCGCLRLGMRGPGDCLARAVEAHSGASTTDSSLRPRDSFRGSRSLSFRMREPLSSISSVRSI

[2] = target: T1, Sphingosine 1-phosphate receptor 4; assay: as §1; remark: listed apart in the source
[3] = target: T1, Sphingosine 1-phosphate receptor 4; assay: Late-stage fluorescence-based dose-response cell-based counterscreen assay to identify agonists of the Sphingosine 1-Phosphate Receptor 4 (S1P4): inhibition by S1P4-selective antagonist 0.4 nM.
[4] = target: T2, Sphingosine 1-phosphate receptor 3 (Homo sapiens, UniProt Q99500); assay: Late-stage fluorescence-based dose-response cell-based counterscreen assay to identify agonists of the Sphingosine 1-Phosphate Receptor 4 (S1P4): Sphingosine 1-Phosphate Receptor 3 (S1P3) antagonist assay Set 2.
[5] = target: T3, Sphingosine 1-phosphate receptor 1 (Homo sapiens, UniProt P21453); assay: Late-stage fluorescence-based dose-response cell-based counterscreen assay to identify agonists of the Sphingosine 1-Phosphate Receptor 4 (S1P4): Sphingosine 1-Phosphate Receptor 1 (S1P1) antagonist assay.
[6] = target: T1, Sphingosine 1-phosphate receptor 4; assay: Late-stage fluorescence-based dose-response cell-based counterscreen assay to identify agonists of the Sphingosine 1-Phosphate Receptor 4 (S1P4): inhibition by S1P4-selective antagonist control.
[7] = cell viability after agonist treatment – luminescence, dose response, set 2, assay provider, cytotoxicity control for S1P4 agonist project, late-stage follow-up (AID 504875)
[8] = target: T1, Sphingosine 1-phosphate receptor 4; assay: Late-stage fluorescence-based dose-response cell-based counterscreen assay to identify agonists of the Sphingosine 1-Phosphate Receptor 4 (S1P4): inhibition by S1P4-selective antagonist 11 nM.
[9] = target: Sphingosine 1-phosphate receptor 5 (Homo sapiens, UniProt Q9H228); assay: Late-stage fluorescence-based dose-response cell-based counterscreen assay to identify agonists of the Sphingosine 1-Phosphate Receptor 4 (S1P4): Sphingosine 1-Phosphate Receptor 5 (S1P5) antagonist assay Set 2.
[10] = target: T2, Sphingosine 1-phosphate receptor 3; assay: Late-stage fluorescence-based dose-response cell-based counterscreen assay to identify agonists of the Sphingosine 1-Phosphate Receptor 4 (S1P4): Sphingosine 1-Phosphate Receptor 3 (S1P3) agonist assay Set 2.
[11] = target: T4, Sphingosine 1-phosphate receptor 2 (Homo sapiens, UniProt O95136); assay: Late-stage fluorescence-based dose-response cell-based counterscreen assay to identify agonists of the Sphingosine 1-Phosphate Receptor 4 (S1P4): Sphingosine 1-Phosphate Receptor 2 (S1P2) antagonist assay Set 2.
[12] = target: T4, Sphingosine 1-phosphate receptor 2; assay: activation of human S1P2 receptor – cell-based, fluorescence, set 2, counter-screen for S1P4 agonist project, late-stage follow-up (AID 504873)
[13] = target: T1, Sphingosine 1-phosphate receptor 4; assay: Late-stage fluorescence dose-response cell-based counterscreen assay to identify agonists of the Sphingosine 1-Phosphate Receptor 4 (S1P4): Sphingosine 1-Phosphate Receptor 4 (S1P4) antagonist assay Set 2.
[14] = target: T3, Sphingosine 1-phosphate receptor 1; assay: Late-stage fluorescence-based dose-response cell-based counterscreen assay to identify agonists of the Sphingosine 1-Phosphate Receptor 4 (S1P4): Sphingosine 1-Phosphate Receptor 1 (S1P1) agonist assay Set 2.
[15] = target: T1, Sphingosine 1-phosphate receptor 4; assay: Late-stage fluorescence-based dose-response cell-based counterscreen assay to identify agonists of the Sphingosine 1-Phosphate Receptor 4 (S1P4): inhibition by S1P4-selective antagonist 33 nM.
[16] = target: T1, Sphingosine 1-phosphate receptor 4; assay: Late-stage fluorescence-based dose-response cell-based counterscreen assay to identify agonists of the Sphingosine 1-Phosphate Receptor 4 (S1P4): inhibition by S1P4-selective antagonist 100 nM.
[17] = Vero cell cytotoxicity, dose response, cytotoxicity control for M. tuberculosis growth inhibitor project, Vero cells, purified and synthesized compounds, set 5 (AID 504909); conditions: Mycobacterium tuberculosis
[18] = THP-1 cell cytotoxicity, cytotoxicity control, set 4 (AID 504911); conditions: Mycobacterium tuberculosis

T3 sequence (P21453 whole entry): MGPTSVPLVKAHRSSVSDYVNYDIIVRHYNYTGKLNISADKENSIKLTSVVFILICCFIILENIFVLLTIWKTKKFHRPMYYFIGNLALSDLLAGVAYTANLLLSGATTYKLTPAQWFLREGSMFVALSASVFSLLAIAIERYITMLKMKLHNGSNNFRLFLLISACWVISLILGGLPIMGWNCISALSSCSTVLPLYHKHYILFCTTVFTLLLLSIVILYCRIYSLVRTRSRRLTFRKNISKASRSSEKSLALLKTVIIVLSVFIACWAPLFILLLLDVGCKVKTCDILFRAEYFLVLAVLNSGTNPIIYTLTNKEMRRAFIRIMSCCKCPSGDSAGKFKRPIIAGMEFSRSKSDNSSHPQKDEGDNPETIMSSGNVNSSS
T4 sequence (O95136 whole entry): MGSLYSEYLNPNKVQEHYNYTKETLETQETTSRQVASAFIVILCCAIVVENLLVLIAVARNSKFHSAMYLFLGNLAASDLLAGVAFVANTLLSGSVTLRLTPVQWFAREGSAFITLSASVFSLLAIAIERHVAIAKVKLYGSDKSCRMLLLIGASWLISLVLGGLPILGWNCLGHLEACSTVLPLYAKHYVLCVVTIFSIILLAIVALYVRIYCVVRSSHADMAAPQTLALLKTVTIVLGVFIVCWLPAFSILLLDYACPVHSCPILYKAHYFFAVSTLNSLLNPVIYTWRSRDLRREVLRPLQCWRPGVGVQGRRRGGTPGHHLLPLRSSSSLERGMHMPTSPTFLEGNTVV
T2 sequence (Q99500 whole entry): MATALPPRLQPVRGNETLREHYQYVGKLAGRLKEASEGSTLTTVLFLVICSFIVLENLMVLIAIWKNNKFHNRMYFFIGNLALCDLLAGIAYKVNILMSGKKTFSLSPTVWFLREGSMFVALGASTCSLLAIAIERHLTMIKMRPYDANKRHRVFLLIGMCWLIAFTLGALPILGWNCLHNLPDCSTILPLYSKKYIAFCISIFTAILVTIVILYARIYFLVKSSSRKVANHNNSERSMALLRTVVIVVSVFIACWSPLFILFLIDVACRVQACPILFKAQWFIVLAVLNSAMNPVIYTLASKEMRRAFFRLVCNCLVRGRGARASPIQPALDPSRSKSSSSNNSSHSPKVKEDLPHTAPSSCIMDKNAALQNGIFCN
Chain of Sphingosine 1-phosphate receptor 5 (Q9H228 whole entry): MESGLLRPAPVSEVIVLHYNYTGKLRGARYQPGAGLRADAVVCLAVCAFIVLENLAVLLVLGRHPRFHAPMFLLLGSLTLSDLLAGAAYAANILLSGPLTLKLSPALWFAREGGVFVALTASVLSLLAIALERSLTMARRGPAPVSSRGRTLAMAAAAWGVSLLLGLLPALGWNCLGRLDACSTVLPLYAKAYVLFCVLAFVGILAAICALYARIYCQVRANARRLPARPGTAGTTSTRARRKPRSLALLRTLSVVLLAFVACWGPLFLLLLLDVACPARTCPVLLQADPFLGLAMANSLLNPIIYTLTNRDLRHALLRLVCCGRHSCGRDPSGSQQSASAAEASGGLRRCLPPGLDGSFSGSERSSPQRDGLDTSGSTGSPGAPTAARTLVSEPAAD

Row | SMILES | EC50 [1] | EC50 [2] | EC50 [3] | IC50 [4] | IC50 [5] | EC50 [6] | CC50 [7] | EC50 [8] | IC50 [9] | EC50 [10] | IC50 [11] | EC50 [12] | IC50 [13] | EC50 [14] | EC50 [15] | EC50 [16] | CC50 [17] | CC50 [18]
1 | COCC/N=C1\S/C(=C\c2cc(C)n(-c3ccc(F)cc3F)c2C)C(=O)N1C | > 3.3 µM (inactive) | 0.173 µM (active) | 0.04 µM (active) | ~8.9 µM (active) | > 25 µM (inactive) | 0.0154 µM (active) | > 10 µM (inactive) | > 3.3 µM (inactive) | > 25 µM (inactive) | > 25 µM (inactive) | 6.76 µM (active) | > 25 µM (inactive) | > 25 µM (inactive) | > 25 µM (inactive) | > 3.3 µM (inactive) | > 3.3 µM (inactive) | – | –
2 | CO[C@H]1/C=C/O[C@@]2(C)Oc3c(C)c(O)c4c(O)c(c(C=NN5CCN(C)CC5)c(O)c4c3C2=O)NC(=O)/C(C)=C\C=C\[C@H](C)[C@H](O)[C@@H](C)[C@@H](O)[C@@H](C)[C@H](OC(C)=O)[C@@H]1C [RIFAMPIN] | – | – | – | – | – | – | – | – | – | – | – | – | – | – | – | – | > 100 µM (active) | 79.7 µM (active)

Source: ChEMBL document CHEMBL1201862, “PubChem BioAssay data set” (2004)
